Experimental data as given in patent US20070065803A1, “Patterns for a skeletal system” (CENTRE NATIONAL DE LA RECHERCHE SCIENTIFIQUE, priority 2003, published 2007).

Test system: osteoclasts derived from RAW-GFP deposited onto a layer of MC3T3-type osteoblast cells
Test: Crossing of the osteoblast layer by osteoclasts in the bone system model (confocal microscopy)
Format: cell-based, murine
Conditions: PP2 at 10 μM; untreated osteoclasts cross the layer after 1 hour to 1 hour 30 min; FIG. 4
Method: FIG. 4, images obtained by confocal microscopy 3D analysis, showing the organization of the two cell types according to the section along Z, in order to determine the effects of PP2 (FIG. 4B) in comparison with the control trial (FIG. 4A).
Cells of the murine osteoblast line MC 3T3 are placed in culture in α-MEM medium supplemented with 10% by volume of fetal calf serum, 10^−8M dexamethasone and 0.028 mM ascorbic acid. The cells are then detached and seeded at confluence onto the mineralized support.
The osteoclasts derived from human or murine primary cultures or from lines (for example, the RAW line or the human line GCT23) are obtained after 7 days of differentiation as described in Destaing et al. (Mol Biol Cell, Podosomes display actin turnover and dynamic self-organization in osteoclasts expressing actin-green fluorescent protein, 14(2):407-16, 2003). The osteoclast precursors are cultured in the presence of α-MEM medium supplemented with 10% by volume of fetal calf serum and of two recombinant cytokines: M-CSF and RANK-L ([…]). The cells are placed at 37° C. and 5% of CO2 and the medium is changed every two days for 7-8 days. The differentiated osteoclasts are detached with a solution of EDTA at 0.25 mM diluted in 1×PBS. The osteoclasts are seeded at a density of 10 cells/mm^2.
An inhibitor of the Src tyrosine kinase, PP2, was tested in the model according to the invention. […]

`CC(C)(C)n1nc(-c2ccc(Cl)cc2)c2c(N)ncnc21` [PP2] was tested, and the “crossing (invasion) of the osteoblast cell layer by the osteoclasts” value was “the osteoclasts no longer cross the osteoblast cell layer”.
